Columns and labels:
[1] = tested on: peritoneal macrophages; test: Phagocytic activity of peritoneal macrophages (opsonized sheep erythrocytes); format: in vivo, mouse; details: for Stimulation degree (phagocytosis completion index increase): F1 mice
Description: 5. Estimation of phagocytic activity of peritoneal macrophages in mice, using JgG-opsonized sheep erythrocytes as the phagocytosis target /10/. Macrophages were attracted by 4-percent hydrolyzed starch solution. On the 3rd or 4th day, 0.5 ml of 5-percent sheep erythrocyte suspension were administered intraperitoneally. Following 60 minutes, exudate was removed. Non phagocytic sheep erythrocytes were subjected to lysis. Cell suspension was washed out. The preparation stained per Romanovsky-Gimze was determined for phagocyting cell percentage. To determine phagocytic index (PI1), the number of sheep erythroccytes captured was calculated spectrophotometrically /11/ by hemoglobin concentration using a calibration curve. Phagocytic index (P12) was determined again following 3 hours of incubation at 37° C. Phagocytosis completion index (PCI) was calculatd using the following formula: [formula] […] Then, for 15 minutes blood was taken from orbital sinus (0.020 ml) every 3 minutes and introduced into 1 ml of 3-percent acetic acid. Blood taking completed, animals were killed and body weight, liver and spleen weight were measured. Optical density of hemolyzed blood determined spectrophometrically at 610 nm wavelenght, and the f (D) t curve was plotted. Points lg (0) (zero time) and lg(10) (on the curve) were located. Phagocytosys constant (K) was calculated using the following formula: [formula] and then true phagocytosis index (α) was calculated using the following formula: [formula] 7. Complement activity determination using the titration technique employing rabbit erythrocytes treated with hyperimmune antiserum of guinea pig /12/ for direct activation route and employing rabbit erythrocytes treated with potassium iodide solution /13/ for alternative activation route. Activity was expressed in units 50-percent lysis per ml of serum (CH50).
The effect of In given at doses of 0.5, 5.0 and 50.0 mg/kg on phagocytosis index was studied in hybrid line F1 (CBA×C57B1/6) mice, with he drug administered intraperitonreallly 30 minutes before injection of the phagocytosis target, i.e. sheep erythrocytes.

[2] = tested on: delayed skin reaction (DSR) to sheep erythrocytes; test: Delayed skin reaction (DSR); format: in vivo, mouse; details: inosiplex 0.5, 5.0 and 50.0 mg/kg; mice of two lines; listed as In
Description: Experimental animals were intraperitoneally administered doses of 10.0 and 100.0 mg/kg in 0.1 ml in parallel to antigen administration; similar doses were given per os for 5 days before antigen administration.
(§1) In was dissolved in physiological solution and administered intraperitonerally at single doses together with antigen (sheep erytrcytes). Physiological solution was used as a control.
(§2) 3. DSR deermination using intravenoous immunization of mice with sheep erythrocytes administered at a dose of 2×10^5 cells. A resolution dose (1×10^8 cells in 0.04 ml of physiological solution) was injected in a hind footpad on the 5th day following immunization. Local inflammatory reaction was accounted for 24 hours later by the difference of mass between experimental (Re) and control (Rc) footpads. Reaction index (RI) was calculated for each mouse using the following formula: [formula] 4. GVHR determination. GVHR was induced by subcutaneous administration of 2×10^6 lymph node cells of […] (CBA) into right hind footpads of line F1 (CBA×C57B1/6) mice. Syngeneic lymphocytes were administered into left footpads. Cell count was determined in 5 ml of homogenate of left (control) and right (experiment) lymph nodes.

[3] = tested on: antibody-forming cells in mouse spleen (sheep erythrocytes as antigen); test: Antibody-forming cell (AFC) count in mouse spleen, local hemolysis reaction (humoral immune response); format: in vivo; details: for AFC stimulation degree: C57B1/6; for AFC count per 10^6 nucleated spleen cells: C57B1/6 males 20-22 g; for AFC stimulating effect: 50.0 mg/kg, low responsive line mice
[4] = tested on: ink clearance, phagocytic activity in vivo; test: Ink clearance (phagocytosis in vivo); design: species or system mouse; details: In intraperitoneally 0.5, 5.0 and 50.0 mg/kg
Description: 5. Estimation of phagocytic activity of peritoneal macrophages in mice, using JgG-opsonized sheep erythrocytes as the phagocytosis target /10/. Macrophages were attracted by 4-percent hydrolyzed starch solution. On the 3rd or 4th day, 0.5 ml of 5-percent sheep erythrocyte suspension were administered intraperitoneally. Following 60 minutes, exudate was removed. Non phagocytic sheep erythrocytes were subjected to lysis. Cell suspension was washed out. The preparation stained per Romanovsky-Gimze was determined for phagocyting cell percentage. To determine phagocytic index (PI1), the number of sheep erythroccytes captured was calculated spectrophotometrically /11/ by hemoglobin concentration using a calibration curve. Phagocytic index (P12) was determined again following 3 hours of incubation at 37° C. Phagocytosis completion index (PCI) was calculatd using the following formula: [formula] […] Blood taking completed, animals were killed and body weight, liver and spleen weight were measured. Optical density of hemolyzed blood determined spectrophometrically at 610 nm wavelenght, and the f (D) t curve was plotted. […] Phagocytosys constant (K) was calculated using the following formula: [formula] and then true phagocytosis index (α) was calculated using the following formula: [formula] […]

[5] = tested on: graft-versus-host reaction (GVHR); test: Graft-versus-host reaction (GVHR); format: in vivo, mouse; details: inosiplex 50.0 mg/kg
Description: as §1, §2

[6] = tested on: hemagglutinin titers for sheep erythrocytes in mouse serum; test: Hemagglutinin (HA) titer for sheep erythrocytes in mouse serum; format: in vivo
[7] = third dose column (printed 5.0 mg/kg), 2 × 10^7 sheep erythrocytes

Compound: CC(=O)Nc1ccc(C(=O)O)cc1.CC(=O)Nc1ccc(C(=O)O)cc1.CC(=O)Nc1ccc(C(=O)O)cc1.CC(O)CN(C)C.CC(O)CN(C)C.CC(O)CN(C)C.O=c1[nH]cnc2c1ncn2[C@@H]1O[C@H](CO)[C@@H](O)[C@H]1O [Inosiplex]
- Stimulation degree (phagocytosis completion index increase) ([1]; 5.0 mg/kg, intraperitoneal): 39%
- Stimulation degree (phagocytosis completion index increase) ([1]; 50.0 mg/kg, intraperitoneal): 76%
- phagocytosis and digesting ability of macrophages (in words) ([1]; common to inosplex and Rp): Stimulation of phagocytosis and digesting ability of macrophages
- phagocytosis index (in words) ([1]; inosiplex 0.5 mg/kg, F1, intraperitoneal): no stimulation effect
- stimulation of phagocytosis completion ([1]; intraperitoneal 5.0 and 50.0 mg/kg): 1.4-1.7 times
- DSR intensity (in words) [2]: no changes in the reaction intensity
- AFC stimulation degree ([3]; 0.5 mg/kg, 10^8 sheep erythrocytes (optimum)): 90%
- AFC count per 10^6 nucleated spleen cells ([3]; 0.5 mg/kg, 2 × 10^7 sheep erythrocytes): 52(63'44)
- AFC count per 10^6 nucleated spleen cells ([3]; 0.5 mg/kg, 10^8 sheep erythrocytes, p < 0.05): 158(186'134)
- AFC stimulation degree ([3]; 5.0 mg/kg, 2 × 10^7 sheep erythrocytes (suboptimum)): 38%
- AFC stimulation degree ([3]; 5.0 mg/kg, 10^8 sheep erythrocytes (optimum)): 82%
- AFC count per 10^6 nucleated spleen cells ([3]; 5.0 mg/kg, 2 × 10^7 sheep erythrocytes): 117(149'98)
- AFC count per 10^6 nucleated spleen cells ([3]; 5.0 mg/kg, 10^8 sheep erythrocytes, p < 0.05): 151(169'134)
- AFC stimulating effect ([3]; optimum immunisation): 139%
- AFC stimulating effect ([3]; suboptimum immunisation): 32%
- stimulation of humoral immune response ([3]; 5.0 and 50.0 mg/kg, animals low responsive to antigen): 1.3-1.8 fold
- antibody-forming cells in the spleen (in words) ([3]; common to inosplex and Rp): Stimulation of forming antibody-forming cells in the spleen
- humoral immune reaction (in words) ([3]; strong-replied animals, optimal dose of antigen): Suppress of humoral immune reaction
- AFC stimulation degree [3, 7]: 32%
- AFC stimulation degree ([3]; third dose column (printed 5.0 mg/kg), 10^8 sheep erythrocytes): 139%
- AFC count per 10^6 nucleated spleen cells [3, 7]: 112(141'89)
- AFC count per 10^6 nucleated spleen cells ([3]; third dose column (printed 5.0 mg/kg), 10^8 sheep erythrocytes, p < 0.01): 199(245'162)
- humoral immune reaction (in words) ([3]; weak-replied animals, and strong-replied mice with suboptimum dose of antigen): Stimulation of humoral immune reaction
- blood clearence rate (in words) [4]: no effect on blood clearence rate
- capturing intensity of inert ink particles (in words) [4]: no changes in capturing intensity of inert ink particles
- GVHR (in words) [5]: slight inhibitory effect
- HA titer, 14th day after immunisation ([6]; 250.0 mg/kg, CBA males 20-22 g, n = 8, suboptimum sheep erythrocyte dose, P< 0.02): 8.5 log2
- stimulation of hemagglutinin production (fold) ([6]; 250.0 mg/kg, line CBA): as much as two times
- stimulation of hemagglutinin production (log2 of hemagglutinin titer) ([6]; 250.0 mg/kg, line CBA): 1 log2 of hemagglutinin titer
- effect on hemagglutinin titer (in words) ([6]; 0.5, 5.0 and 25.0 mg/kg, line CBA, 7th and 14th day, suboptimum immunisation): no stimulating effect

— patent publication US5731357A, “Immunomodulating active substance” (priority 1996, dated 1998)
